Species on record: Rattus norvegicus
Experiment: Open TG-GATES - Regimen: Single
Type: toxicity, organism-based, Sprague-Dawley
Parameters: regimen Single, gender Male, age 6 weeks
Conditions: in vivo, po, route gavage; for gamma-GTP / ALP / ALT / AST / BUN / CRE / Ca / Cl / DBIL / GLC / IP / K / LDH / Na / PL / RALB / TBIL / TC / TG / TP: tissue Plasma; for APTT / Bas / Eos / Fbg / Hb / Ht / Lym / MCH / MCHC / Mono / Neu / Plat / RBC / Ret / WBC: tissue Blood; for KIDNEY_L / KIDNEY_R / KIDNEY_TOTAL: tissue Kidney; for LIVER: tissue Liver
[1] = 10 mg/kg, 3 h, dose level Middle
[2] = 10 mg/kg, 6 h, dose level Middle

Compound O=C(CCCN1CCC(O)(c2ccc(Cl)cc2)CC1)c1ccc(F)cc1 [HALOPERIDOL] has a gamma-GTP (3 mg/kg, 24 h, dose level Low) of 1.6 IU/L, a TERMINAL_BW [1] of 204.5 g and an APTT [1] of 17.3 s. For the same compound, the Bas [1] was 0%, the Eos [1] was 0.4% and the Fbg [1] was 202.4 mg/dL. For the same compound, the Hb [1] was 13.2 g/dL, the Ht [1] was 39.7% and the Lym [1] was 71.2%. It also gave an MCH [1] of 22 pg, an MCHC [1] of 33.1% and a Mono [1] of 12%. For the same compound, the Neu [1] was 16.4%, the Plat [1] was 97.9 x10_4/uL and the RBC [1] was 598.8 x10_4/ul. For the same compound, the Ret [1] was 8.8%, the WBC [1] was 87.7 x10_2/uL and the KIDNEY_L [1] was 0.9 g. It also gave a KIDNEY_R [1] of 1 g, a KIDNEY_TOTAL [1] of 1.9 g and an LIVER [1] of 9.9 g. For the same compound, the ALP [1] was 802.2 IU/L, the ALT [1] was 36 IU/L and the AST [1] was 59.8 IU/L. It also gave a BUN [1] of 11.6 mg/dL, a CRE [1] of 0.6 mg/dL and a Ca [1] of 10.8 mg/dL. For the same compound, the Cl [1] was 107 meq/L, the DBIL [1] was 0.02 mg/dL and the GLC [1] was 216.2 mg/dL. The IP [1] was 10.1 mg/dL, the K [1] was 4.5 meq/L and the LDH [1] was 107.4 IU/L. For the same compound, the Na [1] was 140 meq/L, the PL [1] was 141.2 mg/dL and the RALB [1] was 3.5 g/dL. It also gave a TBIL [1] of 0.3 mg/dL, a TC [1] of 80.8 mg/dL and a TG [1] of 30 mg/dL. The TP [1] was 5.5 g/dL, the gamma-GTP [1] was 1.2 IU/L and the TERMINAL_BW [2] was 201.2 g. It also gave an APTT [2] of 16.6 s, a Bas [2] of 0% and an Eos [2] of 0.8%. For the same compound, the Fbg [2] was 201.2 mg/dL, the Hb [2] was 13.8 g/dL and the Ht [2] was 41.9%. The Lym [2] was 69.8%, the MCH [2] was 21.6 pg and the MCHC [2] was 32.9%. It also gave a Mono [2] of 5.5%, a Neu [2] of 24% and a Plat [2] of 99.7 x10_4/uL. It also gave an RBC [2] of 637.2 x10_4/ul, a Ret [2] of 8.6% and a WBC [2] of 75.3 x10_2/uL. It also gave a KIDNEY_L [2] of 0.9 g, a KIDNEY_R [2] of 1 g and a KIDNEY_TOTAL [2] of 1.9 g. The LIVER [2] was 8.9 g, the ALP [2] was 922.8 IU/L and the ALT [2] was 31.8 IU/L. For the same compound, the AST [2] was 56.5 IU/L, the BUN [2] was 8.8 mg/dL and the CRE [2] was 0.4 mg/dL. For the same compound, the Ca [2] was 10.4 mg/dL, the Cl [2] was 107.2 meq/L and the DBIL [2] was 0.025 mg/dL. The GLC [2] was 189.2 mg/dL, the IP [2] was 10.2 mg/dL and the K [2] was 4.7 meq/L. The LDH [2] was 111 IU/L, the Na [2] was 139.5 meq/L and the PL [2] was 130.5 mg/dL. The RALB [2] was 3.5 g/dL, the TBIL [2] was 0.4 mg/dL and the TC [2] was 75.2 mg/dL. It also gave a TG [2] of 29.5 mg/dL and a TP [2] of 5.5 g/dL.

From ChEMBL document CHEMBL3885861, “Open TG-GATES”
